The text below walks through data of patent US10865388B2, “Method for identifying anti-cancer agents using an in vitro cell culture system that maintains cancer cell stemness” (National Taiwan University, priority 2014, dated 2020).

Common to all, as to assay type: cell-based, human
The subject of one assay is CLS1/CAF. Nature of the assay: Drug resistance assay (MTT), CLS1/CAF. Conditions: 48 h drug treatment, CLS1 co-cultured with CAFs. How it is done: (§1) An MTT [3-(4,5-dimethylthiazolyl-2)-2,5-diphenyltetrazolium bromide] (Sigma) assay was performed to determine cell proliferation. Briefly, CLS1/CAF and CLS1 cells were added to 96-well plates at a density of 5×10^3 cells/well. After incubating for 24 h, the cells were serum-starved overnight. The cells were then treated with different concentrations (0-50 μM) of the drugs docetaxel, cisplatin, etoposide and vinorelbine for 48 h. After 48 h, the culture medium containing 0.5 mg/ml MTT was added to each well. After 1.5 h of incubation, the medium was removed, and DMSO was added to the plates. The color intensity of the solubilized formazan was measured at 570 nm in an ELISA plate reader (Vector3; Perkin-Elmer, USA).

Another assay has as its system CLS1. Nature of the assay: Drug resistance assay (MTT), CLS1. Conditions: 48 h drug treatment, CLS1 after CAF removal. How it is done:
as §1

For assay [1], the system named is lung cancer cells co-cultured with CAFs. In words: Image-based high-content analysis of Nanog-positive cells per colony. The procedure: Lung CSCs or cancer cells (200 cells/well) were added to 96-well plates pre-seeded with CAFs (2000 cells/well) and were allowed to attach to the plates overnight. After different treatments, cells were processed following the immunofluorescence protocol with the Nanog (ReproCELL) (1:300) primary antibody (as the cancer stem-cell marker) and the mouse anti-human CD90 FITC-conjugated (5E10, BD Pharmingen) antibody (as the CAF marker) overnight at 4° C. Next, the primary antibodies were incubated with the TRITC-conjugated secondary antibody [goat anti-rabbit IgG (H+L) Conjugate, Invitrogen] for 2 h at room temperature. The nuclei were counterstained with the Hoechst 33342 dye (Invitrogen). To determine the background fluorescence level of the secondary antibody, each plate included control wells containing only the secondary antibody (stained with the Hoechst 33342 dye). Images of the stained cells were acquired using the automated fluorescence microscopy platform.
Image acquisition and analysis were performed as follows. Stained cells were imaged using the high-content analysis platform with a 4× objective. […] The images were analyzed using the MetaXpress® software (Molecular Devices). […] Finally, the TRITC-stained cell count and the total cell count were determined. The stemness of each colony was calculated as the ratio of Nanog-positive (TRITC-stained) cells to total cells. […]

A further assay has as its system Nanog. In words: RT Q-PCR analysis of the stem cell marker Nanog. Conditions: for Nanog expression in CLS1 cells treated with cytokine: IGF-II 10 ng/ml, HGF 10 ng/ml, sCD14 500 ng/ml (FIG. 4f). The procedure: The expression level of stemness-related genes and validation of the Affymetrix microarray data for CAF, CLS1/CAF and CLS1 were performed through RT Q-PCR using an ABI Prism 7900 Sequencer (Applied Biosystems).
TATA-box binding protein (TBP) and β-actin were used as internal controls. The expression levels were normalized to TBP and defined as −ΔCT=−[CTtarget−CTTBP]. The relative expression ratio was calculated as the fold change relative to the control (2^−ΔΔCT). The experiments were performed in triplicate.

A further assay concerns CLS1 cells. In words: Ultra-low sphere-forming assay, CLS1. The following applies: IGF-II 10 and 100 ng/ml, 21 days (FIG. 5b). How it is done:
An ultra-low sphere-forming assay was performed as previously described (Dontu, et al., 2003) and modified as the following procedures. A single-cell suspension of lung CSCs in MCDB201 serum-free medium (Invitrogen) supplemented with 20 ng/ml EGF (Sigma) and 20 ng/ml bFGF (Invitrogen) was seeded in ultra-low adherent 24-well plates (Corning, Corning, N.Y., USA; 200 viable cells/well). The medium was supplemented with fresh growth factors twice weekly. After 3 weeks, the spheres were examined under the Axiovert 200 microscope.

The subject of the next assay is ALDH activity. In words: ALDEFLUOR assay (flow cytometry). Conditions: CLS1/CAFs, A549, H1975 and EKVX; IGF-II 100 ng/ml (FIG. 15). The procedure:
ALDH activity of cells was measured using the ALDEFLUOR assay kit (StemCell Technologies) based on the manufacturer's protocol and a previous report. Ginestier, et al., 2007. After different treatments, the cells were suspended in the ALDEFLUOR assay buffer containing the ALDH substrate BODIPY-aminoacetaldehyde (BAAA, 1 mM per 1×10^6 cells, incubate 30 min at 37° C.). As a negative control, the cell sample was treated with diethylaminobenzaldehyde (DEAB), a specific ALDH inhibitor. Nonviable cells were identified by propidium iodide staining and analysis using the FACSAria instrument (Becton Dickinson).
On the technique in general: In flow cytometry, cells or beads pass a laser one at a time.

Assay [2] deals with IGF1R-p/IGF1R, AKT-p/AKT and Nanog. In words: Western blot analysis of IGF1R, AKT and Nanog. The following applies: CLS1, CL141 and CL152; IGF-II 10 or 100 ng/ml, time-dependent (FIG. 5c). The procedure: The detailed procedures were performed as described in Zoller, Nat Rev Cancer 11:254-267 (2011). The primary antibodies for p-IGF1R (Y1316, 6113S; 1:1000), p-AKT (D9E; 1:1000), AKT (927L; 1:1000) and Nanog (D73G4; 1:1000) were purchased from Cell Signaling Technology, Inc., and the primary antibody for IGF1R (C-20; 1:1000) was purchased from Santa Cruz. Monoclonal mouse anti-β-actin (Chemicon, Millipore; 1:5000) was used as a loading control. The membranes were then washed three times with TBST, followed by incubation with horseradish peroxidase (HRP)-conjugated secondary antibody (1:5,000) in TBST/2% skim milk. Bound antibody was detected using the Enhanced Chemiluminescence System (Santa Cruz, Calif.). Chemiluminescent signals were captured using the Fujifilm LAS 3000 system (Fujifilm, Tokyo, Japan). All experiments were performed at least three times in duplicate.
Background: A western blot detects proteins with antibodies after separation by electrophoresis.

One may read the IC50 as the point on the concentration scale where inhibition reaches its midpoint. High values mean weaker potency, low ones greater potency. As for `N.N.[Cl][Pt][Cl]` [Cisplatin], the values for the IC50 in the assay with CLS1/CAF and in the assay on CLS1 were 310 nM and 200 nM, respectively.
For `CC(=O)O[C@@]12CO[C@@H]1C[C@H](O)[C@@]1(C)C(=O)[C@H](O)C3=C(C)[C@@H](OC(=O)[C@H](O)[C@@H](NC(=O)OC(C)(C)C)c4ccccc4)C[C@@](O)([C@@H](OC(=O)c4ccccc4)[C@H]21)C3(C)C` [Docetaxel], the IC50 in the assay on CLS1/CAF (Homo sapiens) is 54.8 nM; with CLS1 (Homo sapiens) it was 4.2 nM.
The like results for `COc1cc([C@@H]2c3cc4c(cc3[C@@H](O[C@@H]3O[C@@H]5CO[C@@H](C)O[C@H]5[C@H](O)[C@H]3O)[C@H]3COC(=O)[C@H]23)OCO4)cc(OC)c1O` [Etoposide (VP-16), Etoposide] were, in that order, 109000 nM and 1060 nM.
As for `COc1cc([C@@H]2c3cc4c(cc3[C@H](O)[C@H]3COC(=O)[C@@H]23)OCO4)cc(OC)c1OC` [PPP, picropodophyllin], the “Nanog-positive cells in each colony” value in assay [1] (A549, EKVX, CLS1, CL141 and CL152 co-cultured with CAFs, antibody 1 μg/ml, inhibitors 1 μM/ml (FIG. 6a)) is “significantly inhibited”.
Turning to `CCC1=C[C@@H]2CN(C1)Cc1c([nH]c3ccccc13)[C@@](C(=O)OC)(c1cc3c(cc1OC)N(C)[C@H]1[C@@](O)(C(=O)OC)[C@H](OC(C)=O)[C@]4(CC)C=CCN5CC[C@]31[C@@H]54)C2` [Vinorelbine ditartrate], the results for the concentration for half-maximal inhibition (IC50) in the assay on CLS1/CAF (Homo sapiens) and in the assay on CLS1 (Homo sapiens) were 775 nM and 28.5 nM, respectively.
For “HGF: hepatocyte growth factor, cytokine added to CLS1 cells”, the “Nanog expression in CLS1 cells treated with cytokine” value in the assay on Nanog is “induced”.
As for “IGF-II: growth factor secreted by CAFs, added as cytokine to cancer cells”, the “number of Nanog-positive cells per colony” value in assay [1] (IGF-II 10 and 100 ng/ml, CLS1 cells (FIG. 14b)) is recorded as “facilitated”. The “sphere numbers and size” value in the assay with CLS1 cells was “enlarged”. The ALDEFLUOR-positive ratio result in the assay on ALDH activity is given as “increased”. Further, in the assay on Nanog (CLS1, A549, H1975 and H460 treated with IGF-II 100 ng/ml (FIG. 5a)), the Nanog expression entry was “increased”. Further, the “Nanog expression in CLS1 cells treated with cytokine” value with Nanog is “induced”. Further, the “IGF1R and Akt phosphorylation and downstream Nanog expression” value in assay [2] is on record as “induced”.
